Reference: patent publication US8158792B2, “Spiropiperidines for use as tryptase inhibitors” (Janssen Pharmaceutica N.V., priority 2007, dated 2012)

The compounds below were run against human lung tryptase (assay: β-Tryptase In-Vitro Enzyme Assay). Details: human lung tryptase 1 nM, substrate H-D-HHT-Ala-Arg-pNa 500 μM, pH 7.4, room temperature.
Type: biochemical
Protocol: The β-tryptase assay was conducted with human lung tryptase (Cortex Biochem #CP3033) in an aqueous buffer (10 mM Tris, 10 mM Hepes, 150 mM NaCl, 0.1% PEG 8000, pH 7.4) using the chromogenic substrate H-D-HHT-Ala-Arg-pNa. […] Percent inhibition was calculated by comparing the initial reaction velocity of samples without inhibitor to those with inhibitor. The initial reaction velocities were analyzed using Microsoft Excel.

IC50	Structure (SMILES)
110 nM	NCc1ccc2c(c1)C1(CCN(C(=O)c3ccc(Cl)c(F)c3)CC1)CO2 [Cpd 46, 1-(3-fluoro-4-chloro-phenyl)carbonyl-5′-aminomethyl-spiro[piperidine-4,3′-(2H)-benzo[b]furan]]
7300 nM	NCc1cc2c(cc1F)OCC21CCN(C(=O)c2ccc(Cl)c(Cl)c2)CC1 [Cpd 308, 1-(3,4-dichlorophenyl)carbonyl-5′-aminomethyl-6′-fluoro-spiro[piperidine-4,3′-(2H)-benzo[b]furan]]
360 nM	Cn1c(C(=O)N2CCC3(CC2)COc2ccc(CN)cc23)cc2ccccc21 [Cpd 193, 1-(1-methyl-indol-2-yl)carbonyl-5′-aminomethyl-spiro[piperidine-4,3′-(2H)-benzo[b]furan]]
130 nM	Cc1cc(C(=O)NCc2ccc(C(=O)N3CCC4(CC3)COc3ccc(CN)cc34)o2)c(C)o1 [Cpd 156, 1-[5-(2,5-dimethyl-furan-3-yl-carbonylaminomethyl)-furan-2-yl]carbonyl-5′-aminomethyl-spiro[piperidine-4,3′-(2H)-benzo[b]furan]]
210 nM	COc1ccc2[nH]cc(C(=O)N3CCC4(CC3)COc3ccc(CN)cc34)c2c1 [Cpd 238, 1-(5-methoxy-indol-3-yl)carbonyl-5′-aminomethyl-spiro[piperidine-4,3′-(2H)-benzo[b]furan]]
1500 nM	NCc1ccc2c(c1)C1(CCN(C(=O)CCc3cccc(I)c3)CC1)CO2 [Cpd 97, 1-(3-iodo-phenethyl)carbonyl-5′-aminomethyl-spiro[piperidine-4,3′-(2H)-benzo[b]furan]]
330 nM	NCc1ccc2c(c1)C1(CCN(C(=O)c3ccc(-c4cccc(C(F)(F)F)c4)o3)CC1)CO2 [Cpd 135, 1-[5-(3-trifluoromethyl-phenyl)-furan-2-yl]carbonyl-5′-aminomethyl-spiro[piperidine-4,3′-(2H)-benzo[b]furan]]
580 nM	NCc1ccc2c(c1)C1(CCN(C(=O)/C=C/c3ccsc3)CC1)CO2 [Cpd 255, (E)-1-(thien-3-ylethenyl)carbonyl-5′-aminomethyl-spiro[piperidine-4,3′-(2H)-benzo[b]furan]]
470 nM	Cc1cccc(C(=O)N2CCC3(CC2)COc2ccc(CN)cc23)c1 [Cpd 41, 1-(3-methyl-phenyl)carbonyl-5′-aminomethyl-spiro[piperidine-4,3′-(2H)-benzo[b]furan]]
130 nM	NCc1ccc2c(c1)C1(CCN(C(=O)c3ccc(I)cc3)CC1)CO2 [Cpd 49, 1-(4-iodo-phenyl)carbonyl-5′-aminomethyl-spiro[piperidine-4,3′-(2H)-benzo[b]furan]]
39 nM	NCc1cc2c(cc1F)OCC21CCN(C(=O)c2ccc(C#Cc3ccccc3)o2)CC1 [Cpd 311, 1-(5-phenylethynyl-furan-2-yl)carbonyl-5′-aminomethyl-6′-fluoro-spiro[piperidine-4,3′-(2H)-benzo[b]furan]]
330 nM	N#C/C(=C\c1ccccc1)C(=O)N1CCC2(CC1)COc1ccc(CN)cc12 [Cpd 248, (E)-1-(1-cyano-2-phenylethenyl)carbonyl-5′-aminomethyl-spiro[piperidine-4,3′-(2H)-benzo[b]furan]]
590 nM	NCc1ccc2c(c1)C1(CCN(C(=O)/C=C/c3cccc(F)c3F)CC1)CO2 [Cpd 312, (E)-1-(2,3-difluoro-phenylethenyl)carbonyl-5′-aminomethyl-spiro[piperidine-4,3′-(2H)-benzo[b]furan]]
37 nM	Cc1c(C(=O)N2CCC3(CC2)COc2ccc(CN)cc23)oc2cc(-c3ccccc3)ccc12 [Cpd 228, 1-(3-methyl-6-phenyl-benzo[b]furan-2-yl)carbonyl-5′-aminomethyl-spiro[piperidine-4,3′-(2H)-benzo[b]furan]]
7500 nM	Cc1ccc(-c2nc(C)c(C(=O)N3CCC4(CC3)COc3ccc(CN)cc34)s2)cc1 [Cpd 125, 1-[2-(4-methyl-phenyl)-4-methyl-thiazol-5-yl]carbonyl-5′-aminomethyl-spiro[piperidine-4,3′-(2H)-benzo[b]furan]]

The next lines start with the compound.

Structure (SMILES)	IC50
NCc1ccc2c(c1)C1(CCN(C(=O)Cc3cccc(Oc4ccccc4)c3)CC1)CO2 [Cpd 88, 1-(3-phenoxy-benzyl)carbonyl-5′-aminomethyl-spiro[piperidine-4,3′-(2H)-benzo[b]furan]]	26 nM
NCc1ccc2c(c1)C1(CCN(C(=O)c3ccc(C#Cc4ccccc4)o3)CC1)CN2C(=O)Cc1nnn[nH]1 [Cpd 330, 1-(5-phenylethynyl-furan-2-yl)carbonyl-1′-(2-1H-tetrazol-5-yl-1-oxo-ethyl)-5′-aminomethyl-spiro[piperidine-4,3′-(2H)-indole]]	25 nM
NCc1ccc2c(c1)C1(CCN(C(=O)c3cc4c(s3)CCCCC4)CC1)CO2 [Cpd 257, 1-(5,6,7,8-tetrahydro-4H-cyclohepta[b]thien-2-yl)carbonyl-5′-aminomethyl-spiro[piperidine-4,3′-(2H)-benzo[b]furan]]	440 nM
Cc1cccc(CCC(=O)N2CCC3(CC2)COc2ccc(CN)cc23)c1 [Cpd 98, 1-(3-methyl-phenethyl)carbonyl-5′-aminomethyl-spiro[piperidine-4,3′-(2H)-benzo[b]furan]]	1700 nM
NCc1ccc2c(c1)C1(CCN(C(=O)c3ccc(Oc4ccccc4)cc3)CC1)CO2 [Cpd 62, 1-(4-phenoxy-phenyl)carbonyl-5′-aminomethyl-spiro[piperidine-4,3′-(2H)-benzo[b]furan]]	800 nM
COc1cccc(OCc2ccc(C(=O)N3CCC4(CC3)COc3ccc(CN)cc34)o2)c1 [Cpd 227, 1-[5-(3-methoxy-phenoxymethyl)-furan-2-yl]carbonyl-5′-aminomethyl-spiro[piperidine-4,3′-(2H)-benzo[b]furan]]	44 nM
CS(=O)(=O)c1ccc(C(=O)N2CCC3(CC2)COc2ccc(CN)cc23)s1 [Cpd 169, 1-(5-methylsulfonyl-thien-2-yl)carbonyl-5′-aminomethyl-spiro[piperidine-4,3′-(2H)-benzo[b]furan]]	1600 nM
NCc1ccc2c(c1)C1(CCN(C(=O)c3ccc(Cn4cc(Cl)cn4)o3)CC1)CO2 [Cpd 145, 1-[5-(4-chloro-pyrazol-1-ylmethyl)-furan-2-yl]carbonyl-5′-aminomethyl-spiro[piperidine-4,3′-(2H)-benzo[b]furan]]	340 nM
COc1ccc(C(=O)N2CCC3(CC2)COc2ccc(CN)cc23)cc1OC [Cpd 40, 1-(3,4-dimethoxy-phenyl)carbonyl-5′-aminomethyl-spiro[piperidine-4,3′-(2H)-benzo[b]furan]]	250 nM
NCc1ccc2c(c1)C1(CCN(C(=O)/C=C/c3ccc(Cl)cc3)CC1)CO2 [Cpd 165, (E)-1-(4-chloro-phenylethenyl)carbonyl-5′-aminomethyl-spiro[piperidine-4,3′-(2H)-benzo[b]furan]]	380 nM
CC(=O)N/C(=C\c1ccccc1)C(=O)N1CCC2(CC1)COc1ccc(CN)cc12 [Cpd 205, (Z)-1-(1-methylcarbonylamino-2-phenylethenyl)carbonyl-5′-aminomethyl-spiro[piperidine-4,3′-(2H)-benzo[b]furan]]	740 nM
COc1cccc(-c2ccc(C(=O)N3CCC4(CC3)COc3ccc(CN)cc34)o2)c1 [Cpd 144, 1-[5-(3-methoxy-phenyl)-furan-2-yl]carbonyl-5′-aminomethyl-spiro[piperidine-4,3′-(2H)-benzo[b]furan]]	30 nM
NCc1ccc2c(c1)C1(CCN(C(=O)c3cc4cc(Cl)ccc4o3)CC1)CO2 [Cpd 13, 1-(5-chloro-benzo[b]-furan-2-yl)carbonyl-5′-aminomethyl-spiro[piperidine-4,3′-(2H)-benzo[b]furan]]	1100 nM
NCc1ccc2c(c1)C1(CCN(C(=O)/C=C/c3cccs3)CC1)CO2 [Cpd 254, (E)-1-(thien-2-ylethenyl)carbonyl-5′-aminomethyl-spiro[piperidine-4,3′-(2H)-benzo[b]furan]]	370 nM
NCc1ccc2c(c1)C1(CCN(C(=O)Cc3ccccc3)CC1)CO2 [Cpd 78, 1-benzylcarbonyl-5′-aminomethyl-spiro[piperidine-4,3′-(2H)-benzo[b]furan]]	1400 nM
CS(=O)(=O)N1CC2(CCN(C(=O)c3ccc(C#Cc4ccccc4)o3)CC2)c2cc(CN)ccc21 [Cpd 340, 1-(5-phenylethynyl-furan-2-yl)carbonyl-1′-methylsulfonyl-5′-aminomethyl-spiro[piperidine-4,3′-(2H)-indole]]	1.8 nM
Cc1ccc(C)c(C#Cc2ccc(C(=O)N3CCC4(CC3)COc3ccc(CN)cc34)o2)c1 [Cpd 172, 1-[5-(2,5-dimethyl-phenylethynyl)-furan-2-yl]carbonyl-5′-aminomethyl-spiro[piperidine-4,3′-(2H)-benzo[b]furan]]	7.2 nM
NCc1ccc2c(c1)C1(CCN(C(=O)c3ccc(-c4ccc(Cl)cc4)o3)CC1)CO2 [Cpd 12, 1-[5-(4-chloro-phenyl)-furan-2-yl]carbonyl-5′-aminomethyl-spiro[piperidine-4,3′-(2H)-benzo[b]furan]]	66 nM
COCCCOc1cccc(/C=C/C(=O)N2CCC3(CC2)COc2ccc(CN)cc23)c1 [Cpd 301, (E)-1-[3-(3-methoxy-propoxy)-phenylethenyl]carbonyl-5′-aminomethyl-spiro[piperidine-4,3′-(2H)-benzo[b]furan]]	1500 nM
NCc1ccc2c(c1)C1(CCN(C(=O)Cc3ccc(Cl)cc3)CC1)CO2 [Cpd 91, 1-(4-chloro-benzyl)carbonyl-5′-aminomethyl-spiro[piperidine-4,3′-(2H)-benzo[b]furan]]	480 nM
NCc1ccc2c(c1)C1(CCN(C(=O)/C=C/c3cccc4ccccc34)CC1)CO2 [Cpd 188, (E)-1-(naphthalen-1-ylethenyl)carbonyl-5′-aminomethyl-spiro[piperidine-4,3′-(2H)-benzo[b]furan]]	130 nM
NCc1ccc2c(c1)C1(CCN(C(=O)c3sc(SCc4ccccc4)c4ccccc34)CC1)CO2 [Cpd 240, 1-(3-benzylthio-benzo[c]thien-1-yl)carbonyl-5′-aminomethyl-spiro[piperidine-4,3′-(2H)-benzo[b]furan]]	1.8 nM
